Test results published in BindingDB's records for doi:10.1016/s0960-894x(98)00187-5 (Novartis Pharma, 1999).

Target: Somatostatin receptor type 2 (Rattus norvegicus) (UniProt P30680)
Test: Binding affinity for SSTR2 receptors of rat cortex membranes was determined by using [125I][Tyr3]-octreotide radioligand

Somatostatin receptor type 2 (Rattus norvegicus), sequence (P30680 whole entry, looked up): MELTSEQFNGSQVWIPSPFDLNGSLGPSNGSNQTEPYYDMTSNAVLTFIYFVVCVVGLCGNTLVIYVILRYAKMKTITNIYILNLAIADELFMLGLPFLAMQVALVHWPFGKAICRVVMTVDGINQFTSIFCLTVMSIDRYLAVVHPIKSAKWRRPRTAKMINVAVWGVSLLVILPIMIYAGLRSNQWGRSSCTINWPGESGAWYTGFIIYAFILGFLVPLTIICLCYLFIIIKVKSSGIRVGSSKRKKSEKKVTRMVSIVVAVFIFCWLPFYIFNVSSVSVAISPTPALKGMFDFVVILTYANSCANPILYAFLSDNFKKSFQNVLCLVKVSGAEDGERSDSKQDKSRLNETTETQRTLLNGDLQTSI

Ki: 3.2 nM
Structure (SMILES): C[C@@H](O)[C@@H]1NC(=O)[C@H](CCCCN)NC(=O)[C@@H](Cc2c[nH]c3ccccc23)NC(=O)[C@H](Cc2ccccc2)NC(=O)[C@@H](NC(=O)[C@@H](Cc2ccccc2)NC(=O)CN2CCN(CC(=O)O)CCN(CC(=O)O)CCN(CC(=O)O)CC2)CSSC[C@@H](C(=O)N[C@H](CO)[C@@H](C)O)NC1=O
